Key:
hACC2 = hACC2 (Homo sapiens, UniProt O00763); test: In vitro ACC2 inhibition assay (ADP-Glo), human ACC2; assay type: biochemical
Experimental: (§1) An exemplary procedure for the in vitro ACC inhibition assay, which can be used to determine the inhibitory action of compounds of the invention toward either human (hACC2) or fungal (fACC2) ACC2, follows. The ADP-Glo™ Kinase Assay kit from Promega was used. The ADP-Glo™ Kinase Assay is a luminescent ADP detection assay to measure enzymatic activity by quantifying the amount of ADP produced during an enzyme reaction. The assay is performed in two steps; first, after the enzyme reaction, an equal volume of ADP-Glo™ Reagent is added to terminate the reaction and deplete the remaining ATP. Second, the Kinase Detection Reagent is added to simultaneously convert ADP to ATP and allow the newly synthesized ATP to be measured using a luciferase/luciferin reaction. Luminescence can be correlated to ADP concentrations by using an ATP-to-ADP conversion curve. The detailed procedure is as follows. 50 μL of the compound being tested (600 μM in DMSO) was added to a 384-well dilution plate. The compound was diluted 1:3 in succession in DMSO for each row for 11 wells. 0.5 μL ACC2 working solution was added to 384-well white Optiplate assay plate. 0.5 μL diluted compound solution in each column from step 2 was added to assay plate, each row containing 2 replicates. For the last 2 rows, 0.5 μL negative control (DMSO) was added in one row and 0.5 μL positive control (compound I-97) in the other. The plates were incubated at room temperature for 15 minutes. 5 μL substrate working solution was added to each well to initiate reaction. Final ACC2 reaction concentrations consist of: 5 nM ACC2, 20 μM ATP, 20 μM acetyl-CoA, 12 mM NaHCO3, 0.01% Brij35, 2 mM DTT, 5% DMSO, test compound concentrations: 30 μM, 10 μM, 3.33 μM, 1.11 μM, 0.37 μM, 0.123 μM, 0.0411 μM, 0.0137 μM, 0.00457 μM, 0.00152 μM, and 0.00051 μM. Plates were incubated at room temperature for 60 minutes. 10 μL ADP glo reagent was added. Plates were incubated at room temperature for 40 minutes. 20 μL kinase detection reagent was added. Plates were incubated at room temperature for 40 minutes, and then read on a Perkin Elmer EnVision 2104 plate reader for luminescence as Relative Light Units (RLU).
(§2) Data for each concentration, as well as the positive and negative controls, were averaged, and the standard deviation calculated. Percent inhibition was calculated by the formula: 100×(average negative control−compound)/(average negative control−average positive control). The IC50 for each compound was calculated by fitting the data with a non-linear regression equation: Y=Bottom+(Top−Bottom)/(1+10^((Log IC50−X)*HillSlope)), where X is the log of compound concentration and Y is percent inhibition.

fACC2 = fACC2 (UniProt Q00955); test: In vitro ACC2 inhibition assay (ADP-Glo), fungal ACC2; assay type: biochemical
fACC2, sequence (Q00955 whole entry): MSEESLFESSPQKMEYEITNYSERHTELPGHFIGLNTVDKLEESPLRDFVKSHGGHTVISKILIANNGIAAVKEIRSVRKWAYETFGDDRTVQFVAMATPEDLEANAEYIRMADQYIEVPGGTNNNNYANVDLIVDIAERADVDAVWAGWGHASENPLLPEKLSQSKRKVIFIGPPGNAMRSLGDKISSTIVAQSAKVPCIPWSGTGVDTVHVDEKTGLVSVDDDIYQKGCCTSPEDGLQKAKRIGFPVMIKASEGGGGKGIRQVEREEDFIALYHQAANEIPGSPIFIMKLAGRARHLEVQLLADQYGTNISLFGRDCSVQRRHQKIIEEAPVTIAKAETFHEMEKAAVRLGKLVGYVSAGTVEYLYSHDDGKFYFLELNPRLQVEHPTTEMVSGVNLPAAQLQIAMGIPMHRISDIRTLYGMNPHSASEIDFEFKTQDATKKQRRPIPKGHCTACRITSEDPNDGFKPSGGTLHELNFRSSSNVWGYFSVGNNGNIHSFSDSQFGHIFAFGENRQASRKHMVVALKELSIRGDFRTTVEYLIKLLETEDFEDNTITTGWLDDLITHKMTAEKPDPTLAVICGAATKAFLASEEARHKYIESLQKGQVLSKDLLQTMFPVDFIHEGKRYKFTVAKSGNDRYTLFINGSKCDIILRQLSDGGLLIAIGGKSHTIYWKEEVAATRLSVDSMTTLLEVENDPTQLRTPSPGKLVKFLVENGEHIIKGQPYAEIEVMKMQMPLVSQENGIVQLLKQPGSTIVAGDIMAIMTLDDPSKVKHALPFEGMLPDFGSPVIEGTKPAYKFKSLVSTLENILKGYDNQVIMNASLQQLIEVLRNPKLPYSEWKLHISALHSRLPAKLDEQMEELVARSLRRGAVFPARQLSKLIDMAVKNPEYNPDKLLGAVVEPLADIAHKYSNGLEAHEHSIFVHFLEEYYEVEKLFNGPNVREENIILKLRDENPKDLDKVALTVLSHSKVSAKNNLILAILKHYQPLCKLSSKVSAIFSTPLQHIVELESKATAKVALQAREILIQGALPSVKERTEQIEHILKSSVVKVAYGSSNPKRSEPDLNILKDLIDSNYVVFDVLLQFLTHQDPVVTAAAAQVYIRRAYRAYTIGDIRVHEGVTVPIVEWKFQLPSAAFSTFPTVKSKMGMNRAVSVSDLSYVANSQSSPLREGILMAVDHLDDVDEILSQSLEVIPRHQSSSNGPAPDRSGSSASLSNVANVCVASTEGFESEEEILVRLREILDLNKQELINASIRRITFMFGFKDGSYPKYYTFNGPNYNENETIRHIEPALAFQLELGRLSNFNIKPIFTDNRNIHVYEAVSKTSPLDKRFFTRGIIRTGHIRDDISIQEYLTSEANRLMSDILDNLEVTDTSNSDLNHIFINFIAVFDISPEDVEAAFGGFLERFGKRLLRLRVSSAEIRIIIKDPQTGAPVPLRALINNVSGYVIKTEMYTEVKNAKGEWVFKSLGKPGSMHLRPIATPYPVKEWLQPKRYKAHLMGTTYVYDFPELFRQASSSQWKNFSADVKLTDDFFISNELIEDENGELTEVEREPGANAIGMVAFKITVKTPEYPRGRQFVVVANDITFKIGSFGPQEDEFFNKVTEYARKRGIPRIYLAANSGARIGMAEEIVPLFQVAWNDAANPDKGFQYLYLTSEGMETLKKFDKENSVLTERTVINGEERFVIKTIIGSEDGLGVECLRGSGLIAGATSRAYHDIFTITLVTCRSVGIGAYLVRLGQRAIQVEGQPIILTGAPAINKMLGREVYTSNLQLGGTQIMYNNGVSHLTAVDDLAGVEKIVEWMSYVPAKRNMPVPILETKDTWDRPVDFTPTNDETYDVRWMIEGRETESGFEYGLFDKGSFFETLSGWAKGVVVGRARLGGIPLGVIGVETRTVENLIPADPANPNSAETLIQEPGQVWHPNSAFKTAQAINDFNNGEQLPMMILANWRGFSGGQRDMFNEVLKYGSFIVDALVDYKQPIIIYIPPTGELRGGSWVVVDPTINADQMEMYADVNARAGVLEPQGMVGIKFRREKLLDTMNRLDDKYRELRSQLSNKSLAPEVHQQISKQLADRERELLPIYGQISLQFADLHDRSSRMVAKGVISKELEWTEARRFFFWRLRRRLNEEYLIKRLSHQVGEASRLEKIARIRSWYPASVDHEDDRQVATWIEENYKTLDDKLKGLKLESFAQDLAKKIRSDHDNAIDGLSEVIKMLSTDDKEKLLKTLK
Experimental: as §1, §2

hACC2, sequence (O00763 whole entry): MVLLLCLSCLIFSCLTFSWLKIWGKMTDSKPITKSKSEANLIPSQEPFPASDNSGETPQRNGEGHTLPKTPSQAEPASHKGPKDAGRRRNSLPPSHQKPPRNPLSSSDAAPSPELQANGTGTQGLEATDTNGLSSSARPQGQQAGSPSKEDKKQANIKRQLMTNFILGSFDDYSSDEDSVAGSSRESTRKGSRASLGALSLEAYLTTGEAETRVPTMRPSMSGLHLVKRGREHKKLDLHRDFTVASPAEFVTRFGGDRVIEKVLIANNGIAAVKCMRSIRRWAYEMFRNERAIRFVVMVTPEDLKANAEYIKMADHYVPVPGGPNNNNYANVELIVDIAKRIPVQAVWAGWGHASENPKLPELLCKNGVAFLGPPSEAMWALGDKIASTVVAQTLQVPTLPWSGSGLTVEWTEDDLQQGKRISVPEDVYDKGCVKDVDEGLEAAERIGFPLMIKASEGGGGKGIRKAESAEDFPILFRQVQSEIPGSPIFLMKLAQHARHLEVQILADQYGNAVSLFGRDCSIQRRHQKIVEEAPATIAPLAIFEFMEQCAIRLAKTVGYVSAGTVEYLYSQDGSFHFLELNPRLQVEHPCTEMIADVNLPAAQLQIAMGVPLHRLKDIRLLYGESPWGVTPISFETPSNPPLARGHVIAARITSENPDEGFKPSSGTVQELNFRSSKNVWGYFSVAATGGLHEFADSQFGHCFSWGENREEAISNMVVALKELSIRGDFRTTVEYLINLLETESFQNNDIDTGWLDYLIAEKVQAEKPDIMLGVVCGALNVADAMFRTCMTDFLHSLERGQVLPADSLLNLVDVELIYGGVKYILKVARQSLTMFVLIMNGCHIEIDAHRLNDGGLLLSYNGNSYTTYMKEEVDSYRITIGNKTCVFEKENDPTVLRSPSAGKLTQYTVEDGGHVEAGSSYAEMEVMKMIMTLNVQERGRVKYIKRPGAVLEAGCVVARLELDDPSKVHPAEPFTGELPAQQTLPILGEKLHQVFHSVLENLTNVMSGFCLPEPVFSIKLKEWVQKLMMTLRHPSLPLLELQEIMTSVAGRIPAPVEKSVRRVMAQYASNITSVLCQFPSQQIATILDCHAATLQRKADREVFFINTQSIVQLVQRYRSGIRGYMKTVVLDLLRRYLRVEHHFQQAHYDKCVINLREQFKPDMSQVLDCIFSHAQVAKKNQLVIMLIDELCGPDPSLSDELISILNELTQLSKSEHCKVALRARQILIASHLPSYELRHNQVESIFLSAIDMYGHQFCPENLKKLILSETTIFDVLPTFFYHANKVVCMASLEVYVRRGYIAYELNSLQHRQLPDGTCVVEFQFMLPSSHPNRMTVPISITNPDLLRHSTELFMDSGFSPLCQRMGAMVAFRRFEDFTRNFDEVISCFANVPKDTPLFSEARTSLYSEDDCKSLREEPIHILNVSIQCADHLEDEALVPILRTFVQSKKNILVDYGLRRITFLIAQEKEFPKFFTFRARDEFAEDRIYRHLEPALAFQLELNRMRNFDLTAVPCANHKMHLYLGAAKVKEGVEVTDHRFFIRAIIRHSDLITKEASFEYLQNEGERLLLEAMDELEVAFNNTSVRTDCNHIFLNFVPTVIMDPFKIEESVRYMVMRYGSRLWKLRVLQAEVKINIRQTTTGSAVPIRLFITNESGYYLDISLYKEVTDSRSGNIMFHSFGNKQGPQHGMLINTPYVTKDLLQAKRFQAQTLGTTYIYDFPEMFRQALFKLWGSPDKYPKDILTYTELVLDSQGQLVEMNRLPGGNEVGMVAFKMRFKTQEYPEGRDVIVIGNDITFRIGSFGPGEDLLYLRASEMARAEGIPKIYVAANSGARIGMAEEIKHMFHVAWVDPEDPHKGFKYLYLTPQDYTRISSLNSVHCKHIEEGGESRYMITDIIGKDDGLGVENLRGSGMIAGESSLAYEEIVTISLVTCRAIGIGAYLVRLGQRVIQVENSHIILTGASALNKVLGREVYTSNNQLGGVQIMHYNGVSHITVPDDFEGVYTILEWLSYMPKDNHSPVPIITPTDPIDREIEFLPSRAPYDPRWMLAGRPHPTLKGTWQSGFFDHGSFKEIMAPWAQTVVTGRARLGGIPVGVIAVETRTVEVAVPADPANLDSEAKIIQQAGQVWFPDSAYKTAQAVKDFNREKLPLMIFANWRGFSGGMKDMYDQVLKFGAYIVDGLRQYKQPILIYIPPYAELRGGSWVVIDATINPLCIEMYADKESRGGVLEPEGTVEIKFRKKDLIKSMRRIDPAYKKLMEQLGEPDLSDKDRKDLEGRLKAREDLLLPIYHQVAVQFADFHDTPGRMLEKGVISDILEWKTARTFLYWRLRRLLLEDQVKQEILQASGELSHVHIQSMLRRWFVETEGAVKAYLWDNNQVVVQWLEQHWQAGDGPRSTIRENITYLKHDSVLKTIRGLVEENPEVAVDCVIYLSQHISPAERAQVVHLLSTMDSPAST

SMILES: CCOC(=O)c1sc2c(c1C)c(=O)n(C(C)(C)C(N)=O)c(=O)n2C[C@H](OCCO)c1cc(F)ccc1OC [Compound I-17, (R)-ethyl 3-(1-amino-2-methyl-1-oxopropan-2-yl)-1-(2-(5-fluoro-2-methoxyphenyl)-2-(2-hydroxyethoxy)ethyl)-5-methyl-2,4-dioxo-1,2,3,4-tetrahydro-thieno[2,3-d]pyrimidine-6-carboxylate]
- IC50 (hACC2; Table 2a): 10 to 40 nM
- IC50 (fACC2; Table 2a): 0.6 to 3 nM
- IC50 (fACC2; Table 2b (additional results)): 0.3 to 3 nM

SMILES: CCOC(=O)c1sc2c(c1C)c(=O)n(C(C)(C)C(=O)NC(C)C)c(=O)n2C[C@H](OCCO)c1cc(F)ccc1OC [Compound I-18, (R)-ethyl 1-(2-(5-fluoro-2-methoxyphenyl)-2-(2-hydroxy-ethoxy)ethyl)-3-(1-(isopropylamino)-2-methyl-1-oxopropan-2-yl)-5-methyl-2,4-dioxo-1,2,3,4-tetrahydrothieno[2,3-d]pyrimidine-6-carboxylate]
- IC50 (hACC2; Table 2a): 10 to 40 nM
- IC50 (fACC2; Table 2a): 0.6 to 3 nM

SMILES: CCOC(=O)c1sc2c(c1C)c(=O)n([C@@H](C)C(=O)NC(C)C)c(=O)n2C[C@H](OCCC#N)c1cc(F)ccc1OC [Compound I-20, ethyl 1-((R)-2-(2-cyanoethoxy)-2-(5-fluoro-2-methoxy-phenyl)ethyl)-3-((S)-1-(isopropylamino)-1-oxopropan-2-yl)-5-methyl-2,4-dioxo-1,2,3,4-tetrahydrothieno[2,3-d]pyrimidine-6-carboxylate]
- IC50 (hACC2; Table 2b (additional results)): 3 to 10 nM
- IC50 (fACC2; Table 2b (additional results)): 0.3 to 3 nM

SMILES: CCOC(=O)c1sc2c(c1C)c(=O)n([C@H](C)C(=O)NC(C)C)c(=O)n2C[C@H](OCCC#N)c1cc(F)ccc1OC [Compound I-21, ethyl 1-((R)-2-(2-cyanoethoxy)-2-(5-fluoro-2-methoxyphenyl)ethyl)-3-((R)-1-(isopropylamino)-1-oxopropan-2-yl)-5-methyl-2,4-dioxo-1,2,3,4-tetrahydrothieno[2,3-d]pyrimidine-6-carboxylate]
- IC50 (hACC2; Table 2b (additional results)): 0.3 to 3 nM
- IC50 (fACC2; Table 2b (additional results)): 0.3 to 3 nM

SMILES: CCOC(=O)c1sc2c(c1C)c(=O)n(C(C)(C)C(=O)N1CCCC1)c(=O)n2C[C@H](O)c1cc(F)ccc1OC [Compound I-22, (R)-ethyl 1-(2-(5-fluoro-2-methoxyphenyl)-2-hydroxyethyl)-5-methyl-3-(2-methyl-1-oxo-1-(pyrrolidin-1-yl)propan-2-yl)-2,4-dioxo-1,2,3,4-tetrahydrothieno[2,3-d]pyrimidine-6-carboxylate]
- IC50 (hACC2; Table 2b (additional results)): 10 to 40 nM
- IC50 (fACC2; Table 2b (additional results)): 0.3 to 3 nM

SMILES: CCOC(=O)c1sc2c(c1C)c(=O)n([C@@H](C)C(=O)N1CCCC1)c(=O)n2C[C@H](OCCC#N)c1cc(F)ccc1OC [Compound I-23, ethyl 1-((R)-2-(2-cyanoethoxy)-2-(5-fluoro-2-methoxy-phenyl)ethyl)-5-methyl-2,4-dioxo-3-((S)-1-oxo-1-(pyrrolidin-1-yl)propan-2-yl)-1,2,3,4-tetrahydrothieno[2,3-d]pyrimidine-6-carboxylate]
- IC50 (hACC2; Table 2b (additional results)): 3 to 10 nM
- IC50 (fACC2; Table 2b (additional results)): 3 to 10 nM

SMILES: CCOC(=O)c1sc2c(c1C)c(=O)n([C@H](C)C(=O)N1CCCC1)c(=O)n2C[C@H](OCCC#N)c1cc(F)ccc1OC [Compound I-24, ethyl 1-((R)-2-(2-cyanoethoxy)-2-(5-fluoro-2-methoxy-phenyl)ethyl)-5-methyl-2,4-dioxo-3-((R)-1-oxo-1-(pyrrolidin-1-yl)propan-2-yl)-1,2,3,4-tetrahydrothieno[2,3-d]pyrimidine-6-carboxylate]
- IC50 (hACC2; Table 2b (additional results)): 3 to 10 nM
- IC50 (fACC2; Table 2b (additional results)): 0.3 to 3 nM

SMILES: CCOC(=O)c1sc2c(c1C)c(=O)n([C@@H](C)C(N)=O)c(=O)n2C[C@H](OCCC#N)c1cc(F)ccc1OC [Compound I-25, ethyl 3-((S)-1-amino-1-oxopropan-2-yl)-1-((R)-2-(2-cyanoethoxy)-2-(5-fluoro-2-methoxyphenyl)ethyl)-5-methyl-2,4-dioxo-1,2,3,4-tetrahydrothieno[2,3-d]pyrimidine-6-carboxylate]
- IC50 (hACC2; Table 2b (additional results)): 3 to 10 nM
- IC50 (fACC2; Table 2b (additional results)): 0.3 to 3 nM

SMILES: CCOC(=O)c1sc2c(c1C)c(=O)n([C@H](C)C(N)=O)c(=O)n2C[C@H](OCCC#N)c1cc(F)ccc1OC [Compound I-26, ethyl 3-((R)-1-amino-1-oxopropan-2-yl)-1-((R)-2-(2-cyanoethoxy)-2-(5-fluoro-2-methoxyphenyl)ethyl)-5-methyl-2,4-dioxo-1,2,3,4-tetrahydrothieno[2,3-d]pyrimidine-6-carboxylate]
- IC50 (hACC2; Table 2b (additional results)): 3 to 10 nM
- IC50 (fACC2; Table 2b (additional results)): 0.3 to 3 nM

SMILES: CCOC(=O)c1sc2c(c1C)c(=O)n([C@H](C)C(=O)N(C)C(C)C)c(=O)n2C[C@H](OCCC#N)c1cc(F)ccc1OC [Compound I-27, ethyl 1-((R)-2-(2-cyanoethoxy)-2-(5-fluoro-2-methoxy-phenyl)ethyl)-3-((R)-1-(isopropyl(methyl)amino)-1-oxopropan-2-yl)-5-methyl-2,4-dioxo-1,2,3,4-tetrahydrothieno[2,3-d]pyrimidine-6-carboxylate]
- IC50 (hACC2; Table 2b (additional results)): 0.3 to 3 nM
- IC50 (fACC2; Table 2b (additional results)): 0.3 to 3 nM

SMILES: CCOC(=O)c1sc2c(c1C)c(=O)n([C@@H](C)C(=O)N(C)C(C)C)c(=O)n2C[C@H](OCCC#N)c1cc(F)ccc1OC [Compound I-28, ethyl 1-((R)-2-(2-cyanoethoxy)-2-(5-fluoro-2-methoxy-phenyl)-ethyl)-3-((S)-1-(isopropyl(methyl)amino)-1-oxopropan-2-yl)-5-methyl-2,4-dioxo-1,2,3,4-tetrahydrothieno[2,3-d]pyrimidine-6-carboxylate]
- IC50 (hACC2; Table 2b (additional results)): 3 to 10 nM
- IC50 (fACC2; Table 2b (additional results)): 0.3 to 3 nM

SMILES: CCNC(=O)C(C)(C)n1c(=O)c2c(C)c(C(=O)OCC)sc2n(C[C@H](OCCC#N)c2cc(F)ccc2OC)c1=O [Compound I-29, (R)-ethyl 1-(2-(2-cyanoethoxy)-2-(5-fluoro-2-methoxy-phenyl)ethyl)-3-(1-(ethylamino)-2-methyl-1-oxopropan-2-yl)-5-methyl-2,4-dioxo-1,2,3,4-tetrahydrothieno[2,3-d]pyrimidine-6-carboxylate]
- IC50 (hACC2; Table 2b (additional results)): 3 to 10 nM
- IC50 (fACC2; Table 2b (additional results)): 0.3 to 3 nM

SMILES: CCOC(=O)c1sc2c(c1C)c(=O)n(C(C)(C)C(=O)NC(C)C)c(=O)n2C[C@H](OCCC#N)c1ccccc1OC [Compound I-31, ethyl (R)-1-(2-(2-cyanoethoxy)-2-(2-methoxyphenyl)ethyl)-3-(1-(isopropylamino)-2-methyl-1-oxopropan-2-yl)-5-methyl-2,4-dioxo-1,2,3,4-tetrahydrothieno[2,3-d]pyrimidine-6-carboxylate]
- IC50 (hACC2; Table 2b (additional results)): 3 to 10 nM
- IC50 (fACC2; Table 2b (additional results)): 0.3 to 3 nM

SMILES: CCNC(=O)C(C)(C)n1c(=O)c2c(C)c(C(=O)OCC)sc2n(C[C@H](OCCC#N)c2ccccc2OC)c1=O [Compound I-32, ethyl (R)-1-(2-(2-cyanoethoxy)-2-(2-methoxyphenyl)ethyl)-3-(1-(ethylamino)-2-methyl-1-oxopropan-2-yl)-5-methyl-2,4-dioxo-1,2,3,4-tetrahydrothieno[2,3-d]pyrimidine-6-carboxylate]
- IC50 (hACC2; Table 2b (additional results)): 3 to 10 nM
- IC50 (fACC2; Table 2b (additional results)): 0.3 to 3 nM

SMILES: CCOC(=O)c1sc2c(c1C)c(=O)n(C(C)(C)C(=O)NC(C)C)c(=O)n2C[C@H](OCC#N)c1cc(F)ccc1OC [Compound I-33, ethyl (R)-1-(2-(cyanomethoxy)-2-(5-fluoro-2-methoxy-phenyl)ethyl)-3-(1-(isopropylamino)-2-methyl-1-oxopropan-2-yl)-5-methyl-2,4-dioxo-1,2,3,4-tetrahydrothieno[2,3-d]pyrimidine-6-carboxylate]
- IC50 (hACC2; Table 2b (additional results)): 3 to 10 nM
- IC50 (fACC2; Table 2b (additional results)): 0.3 to 3 nM

— patent US11098055B2, “Ester ACC inhibitors and uses thereof” (Gilead Apollo, LLC, priority 2015, dated 2021)
